Drawing on ChEMBL document CHEMBL3739302, “Synthesis of 5-trifluoromethyl-2-sulfonylpyridine PPARβ/δ antagonists: Effects on the affinity and selectivity towards PPARβ/δ” (Bioorg Med Chem, 2016), this text covers Activity and IC50 for 34 compounds.

In general, IC50 refers to the midpoint of a concentration-inhibition curve. The low end stands for greater potency in that assay, the high end for weaker potency in that assay.

Assay [1] addresses T1, Peroxisome proliferator-activated receptor alpha (Homo sapiens) (UniProt Q07869).
T1 sequence (whole entry): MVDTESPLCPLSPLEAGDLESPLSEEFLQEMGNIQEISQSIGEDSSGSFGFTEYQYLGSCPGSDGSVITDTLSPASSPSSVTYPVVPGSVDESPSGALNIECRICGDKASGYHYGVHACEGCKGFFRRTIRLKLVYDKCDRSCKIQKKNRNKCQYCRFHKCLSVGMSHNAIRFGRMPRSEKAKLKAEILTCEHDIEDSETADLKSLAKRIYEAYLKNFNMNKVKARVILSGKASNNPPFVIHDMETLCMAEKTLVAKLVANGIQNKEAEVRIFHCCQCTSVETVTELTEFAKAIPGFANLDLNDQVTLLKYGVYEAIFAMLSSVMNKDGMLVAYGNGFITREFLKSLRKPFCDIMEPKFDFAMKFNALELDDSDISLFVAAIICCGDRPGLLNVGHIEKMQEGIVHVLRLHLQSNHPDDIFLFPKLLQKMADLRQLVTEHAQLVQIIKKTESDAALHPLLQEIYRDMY
Nature of the assay: Binding affinity to GST-PPAR-alpha LBP (unknown origin) at 1 uM by TR-FRET assay.

In assay [2] the target is T1, Peroxisome proliferator-activated receptor alpha (Homo sapiens). As to the kind of experiment: Binding affinity to GST-PPAR-alpha LBP (unknown origin) at 1 and 10 uM after 1 hr by TR-FRET assay. Background: Time-resolved FRET reads energy transfer from a long-lived donor to a nearby acceptor.
In assay [3] the target is T2, Peroxisome proliferator-activated receptor gamma (Homo sapiens) (UniProt P37231).
T2 sequence (whole entry): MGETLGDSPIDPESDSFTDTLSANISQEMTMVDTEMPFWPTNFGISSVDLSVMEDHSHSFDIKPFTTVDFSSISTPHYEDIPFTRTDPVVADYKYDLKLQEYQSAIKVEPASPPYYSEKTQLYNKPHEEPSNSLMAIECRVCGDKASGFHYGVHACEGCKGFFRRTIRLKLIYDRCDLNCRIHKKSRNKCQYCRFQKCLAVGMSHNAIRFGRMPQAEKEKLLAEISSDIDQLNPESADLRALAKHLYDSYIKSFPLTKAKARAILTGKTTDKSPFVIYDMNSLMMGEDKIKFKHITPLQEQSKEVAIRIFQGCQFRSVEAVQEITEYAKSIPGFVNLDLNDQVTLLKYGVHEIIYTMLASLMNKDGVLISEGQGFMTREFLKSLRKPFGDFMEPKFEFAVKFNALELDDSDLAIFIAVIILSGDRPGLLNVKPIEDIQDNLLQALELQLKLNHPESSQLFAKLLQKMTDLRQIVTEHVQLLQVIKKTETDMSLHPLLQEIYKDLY
As to the kind of experiment: Binding affinity to GST-PPAR-gamma LBP (unknown origin) at 10 uM after 1 hr by TR-FRET assay.

For assay [4], the target named is T1, Peroxisome proliferator-activated receptor alpha (Homo sapiens). Nature of the assay: Binding affinity to GST-PPAR-alpha LBP (unknown origin) at 1 and 10 uM after 24 hrs by TR-FRET assay.
For assay [5], the target named is T3, Peroxisome proliferator-activated receptor delta (Homo sapiens, UniProt Q03181).
T3 sequence (Q03181 whole entry): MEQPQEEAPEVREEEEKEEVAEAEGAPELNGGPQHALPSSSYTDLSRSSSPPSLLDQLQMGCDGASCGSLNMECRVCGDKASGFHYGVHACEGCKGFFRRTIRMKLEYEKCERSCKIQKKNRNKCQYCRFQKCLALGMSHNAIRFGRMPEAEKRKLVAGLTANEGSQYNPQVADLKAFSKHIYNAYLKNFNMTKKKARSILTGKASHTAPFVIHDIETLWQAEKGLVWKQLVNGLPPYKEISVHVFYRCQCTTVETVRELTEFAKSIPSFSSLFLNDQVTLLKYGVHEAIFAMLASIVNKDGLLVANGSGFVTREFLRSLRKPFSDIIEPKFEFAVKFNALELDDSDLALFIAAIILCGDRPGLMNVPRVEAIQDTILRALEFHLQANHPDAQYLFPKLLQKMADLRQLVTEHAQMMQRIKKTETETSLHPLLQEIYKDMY
Nature of the assay: Binding affinity to GST-PPAR-beta/delta LBP (unknown origin) after 3 hrs by TR-FRET assay.

In assay [6] the target is T4, Peroxisome proliferator-activated receptor delta (Homo sapiens) (UniProt Q03181).
T4 sequence (whole entry): T3 sequence (Q03181 whole entry)
As to the kind of experiment: Binding affinity to GST-PPAR-beta/delta LBP (unknown origin) at 1 uM after 1 hr by TR-FRET assay.

The target of assay [7] is T3, Peroxisome proliferator-activated receptor delta. Nature of the assay: Binding affinity to GST-PPAR-beta/delta LBP (unknown origin) after 40 mins by TR-FRET assay.
In assay [8] the target is T2, Peroxisome proliferator-activated receptor gamma (Homo sapiens). Nature of the assay: Binding affinity to GST-PPAR-gamma LBP (unknown origin) at 1 uM after 1 hr by TR-FRET assay.
Assay [9] has the same target. Nature of the assay: Binding affinity to GST-PPAR-gamma LBP (unknown origin) at 1 uM after 24 hrs by TR-FRET assay.
In assay [10] the target is T3, Peroxisome proliferator-activated receptor delta. As to the kind of experiment: Binding affinity to GST-PPAR-beta/delta LBP (unknown origin) after 20 mins by TR-FRET assay.
Assay [11] has as its target T2, Peroxisome proliferator-activated receptor gamma (Homo sapiens). Nature of the assay: Binding affinity to GST-PPAR-gamma LBP (unknown origin) at 10 uM after 24 hrs by TR-FRET assay.
The target of assay [12] is T3, Peroxisome proliferator-activated receptor delta. Nature of the assay: Binding affinity to GST-PPAR-beta/delta LBP (unknown origin) after 2 hrs by TR-FRET assay.
Assay [13] shares this target. Nature of the assay: Binding affinity to GST-PPAR-beta/delta LBP (unknown origin) after 1 hr by TR-FRET assay.
Assay [14] shares this target. As to the kind of experiment: Binding affinity to GST-PPAR-beta/delta LBP (unknown origin) after 24 hrs by TR-FRET assay.
Assay [15] concerns the target T1, Peroxisome proliferator-activated receptor alpha (Homo sapiens). Nature of the assay: Binding affinity to GST-PPAR-alpha LBP (unknown origin) at 1 uM after 2 hrs by TR-FRET assay.

SMILES strings stand for the structures. Activity calls are given as the source filed them. No cut-off for these calls is given here.

For the compound `CCN(CCS(=O)(=O)c1ccc(C(F)(F)F)cn1)C(=O)c1ccc2ccccc2c1`, the result in assay [1] was Active.
As to `O=C(NCCS(=O)(=O)c1ccc(C(F)(F)F)cn1)c1ccc2ccccc2c1`, the result in assay [2] and in assay [4] was inactive. In addition, the result in assay [1], in assay [3], in assay [6], in assay [8], in assay [9] and in assay [11] was Active. For the same compound, the 50% inhibitory concentration (IC50) in assay [5] was 320 nM; in [7], 930 nM; in [10] it was 1930 nM; in assay [12], 448 nM; in assay [13], 751 nM.
With `O=C(NCCS(=O)(=O)c1ccc(C(F)(F)F)cn1)c1cccc2ccncc12`, in assay [1], the result was Active.
As to `O=C(NCCS(=O)(=O)c1ccc(C(F)(F)F)cn1)c1cnc2ccccc2c1`, the result in assay [2] and in assay [4] was inactive. The result in [3], in assay [8], in assay [9] and in assay [11] was Active. For the same compound, the concentration for half-maximal inhibition (IC50) came out at 1430 nM in [5]; 17600 nM in assay [7]; 2320 nM in assay [12]; 6820 nM in assay [13]; 241 nM in assay [14].
For `O=C(NCCS(=O)(=O)c1ccc(C(F)(F)F)cn1)c1cccc2c1CCCC2`, the result in assay [1] and in assay [8] was Active.
For the compound `O=C(NCCS(=O)(=O)c1ccc(C(F)(F)F)cn1)c1ccc2cnccc2c1`, the outcome in [1] was Active.
Still for that read-out and setting: the value for `O=C(NCCS(=O)(=O)c1ccc(C(F)(F)F)cn1)c1cccc2ncccc12` was “Active”.
Take `O=C(NCCS(=O)(=O)c1ccc(C(F)(F)F)cn1)C12CC3CC(CC(C3)C1)C2`: in [1], the outcome was Active.
For `Cc1nc(-c2ccc(C(F)(F)F)cc2)sc1C(=O)NCCS(=O)(=O)c1ccc(C(F)(F)F)cn1`, the result in assay [2] and in assay [4] was inactive. In addition, the IC50 in assay [5] was determined as 284 nM; in assay [7], 581 nM; in [10], 949 nM; in [12], 301 nM; in assay [13] it was 423 nM. Also, in assay [8], the outcome was Active.
On to `CC(C)(C)C(=O)NCCS(=O)(=O)c1ccc(C(F)(F)F)cn1`, for which the outcome in assay [1] was Active.
The same measure, in the same setting: as for `O=C(NCCS(=O)(=O)c1ccc(C(F)(F)F)cn1)c1cccnc1`, the entry is “Active”.
For `O=C(NCCS(=O)(=O)c1ccc(C(F)(F)F)cn1)c1ccc(Cl)cc1`, the result in [2] and in assay [4] was inactive. The result in [3], in [8] and in [11] was Active. Further, the IC50 in assay [5] amounted to 233 nM; in assay [7], 825 nM; in [10] it was 1330 nM; in assay [12] it was 284 nM; in [13], 648 nM; in [14] it was 1.21 nM.
For the compound `COc1ccc(C(=O)NCCS(=O)(=O)c2ccc(C(F)(F)F)cn2)cc1`, the result in assay [1] and in assay [6] was Active.
For `O=C(COc1ccccc1)NCCS(=O)(=O)c1ccc(C(F)(F)F)cn1`, the outcome in [1] was Active.
Still for that read-out and setting: the value for `O=C(NCCS(=O)(=O)c1ccc(C(F)(F)F)cn1)c1cccc2cnccc12` was “Active”.
Regarding `CN1CCN(c2ccc(/C=C(\C#N)c3ccccc3Br)cc2)CC1`, the IC50 in [5] worked out at 40.1 nM; in [7], 30.4 nM; in assay [10], 29 nM; in assay [12], 37 nM; in assay [13] it was 32.7 nM; in assay [14] it was 48 nM.
Take `O=C(NCCS(=O)(=O)c1ccc(C(F)(F)F)cn1)c1cncc2ccccc12`: the result in [1] was Active.
Same read-out and setting: as for `O=C(NCCS(=O)(=O)c1ccc(C(F)(F)F)cn1)c1ccc2ncccc2c1`, the entry is “Active”.
As for `O=C(NCCS(=O)(=O)c1ccc(C(F)(F)F)cn1)c1cccc2ccccc12`, the result in [1], in [6] and in assay [8] was Active.
On to `O=C(NCCS(=O)(=O)c1ccc(C(F)(F)F)cn1)c1ccc2ccncc2c1`, for which the outcome in assay [1] and in assay [8] was Active.
For the compound `O=C(NCCS(=O)(=O)c1ccc(C(F)(F)F)cn1)c1ccnc2ccccc12`, the outcome in [1] and in [15] was Active.
For the compound `O=C(CCCS(=O)(=O)c1ccc(C(F)(F)F)cn1)c1ccc2ccccc2c1`, the result in [1] was Active.
Same read-out and setting: as for `O=C(NCCS(=O)(=O)c1ccc(C(F)(F)F)cn1)c1ccccc1`, the entry is “Active”; as for `O=C(NCCS(=O)(=O)c1ccc(C(F)(F)F)cn1)c1ccc2ccccc2n1`, “Active”.
As to `O=C(c1ccc2ccccc2c1)N(CCS(=O)(=O)c1ccc(C(F)(F)F)cn1)Cc1ccccc1`, the outcome in assay [1] was Active.
`O=C(NCCS(=O)(=O)c1ccc(C(F)(F)F)cn1)c1nccc2ccccc12`: the result in assay [1] and in assay [8] was Active.
With `O=C(NCCS(=O)(=O)c1ccc(C(F)(F)F)cn1)c1ccc(F)cc1`, the outcome in assay [1], in assay [6] and in [8] was Active.
In the case of `O=C(NCCS(=O)(=O)c1ccc(C(F)(F)F)cn1)c1ccc2cccnc2c1`, in assay [1], the result was Active.
With `O=C(NCCS(=O)(=O)c1ccc(C(F)(F)F)cn1)c1ccc2c(c1)CCCC2`, the result in assay [2] and in assay [4] was inactive. For the same compound, the outcome in [3], in [8], in assay [9] and in assay [11] was Active. The half-inhibitory concentration (IC50) is 598 nM in assay [5]; 1960 nM in assay [7]; 4220 nM in assay [10]; 907 nM in assay [12]; 1530 nM in assay [13]; 271 nM in [14].
With `CC(C)C(=O)NCCS(=O)(=O)c1ccc(C(F)(F)F)cn1`, the outcome in [1] was Active.
Turning to `O=C(NCCS(=O)(=O)c1ccc(C(F)(F)F)cn1)c1cccc2cccnc12`, the outcome in assay [1] was Active.
The same measure, in the same setting: as for `O=C(CCCS(=O)(=O)c1ccc(C(F)(F)F)cn1)c1cccc2ccccc12`, the entry is “Active”.
As to `CN(CCS(=O)(=O)c1ccc(C(F)(F)F)cn1)C(=O)c1ccc2ccccc2c1`, the result in assay [1] and in assay [8] was Active.
Take `O=C(NCCS(=O)(=O)c1ccc(C(F)(F)F)cn1)c1cc2ccccc2cn1`: the result in [1] was Active.
